What was measured:
Format in all cases: in vivo
rice (Oryra sativa) = test: Test B flooded paddy test; settings: Flood, 0 to 100 scale where 0 is no effect and 100 is complete control, 13 to 15 d
Outline: (§1)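 Percent control, visually estimated after 13–15 d in the greenhouse on a 0–100 basis, compares treated pots with untreated ones; compound was put into paddy water 3 cm above the soil when plants had two leaves.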

[1] = system: barnyardgrass (Echinochloa crus-galli); test: Test B flooded paddy test; settings: Flood, 0 to 100 scale where 0 is no effect and 100 is complete control, 13 to 15 d
Outline: as §1

[2] = system: ducksalad (Heteranthera limosa); test: Test B flooded paddy test; settings: Flood, 0 to 100 scale where 0 is no effect and 100 is complete control, 13 to 15 d
Outline: as §1

[3] = system: sedge, umbrella (small-flower umbrella sedge, Cyperus difformis); test: Test B flooded paddy test; settings: Flood, 0 to 100 scale where 0 is no effect and 100 is complete control, 13 to 15 d
Outline: as §1

[4] = system: Galium (catchweed bedstraw, Galium aparine); test: Test A postemergence; settings: postemergence; for Galium plant response rating: 125 g ai/ha, visual injury rating on 0 to 100 scale (0 no effect, 100 complete control), approx. 10 d; for Plant response rating, Galium: 500 g ai/ha, 0 to 100 scale, 0 no effect, 100 complete control
Outline: (§2)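 Visual injury scores from 0, no effect, to 100, complete control, were assigned versus untreated controls roughly 10 d after treatment in the greenhouse. Test chemicals, formulated with surfactant in a non-phytotoxic solvent, were applied to planted seeds as a preemergence soil spray or postemergence to one- to two-leaf plants 2 to 10 cm tall, in loam–sand soil.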

[5] = system: ryegrass, Italian (Italian ryegrass, Lolium multiflorum); test: Test A postemergence; settings: postemergence; for Ryegrass, Italian plant response rating: 125 g ai/ha, visual injury rating on 0 to 100 scale (0 no effect, 100 complete control), approx. 10 d; for Plant response rating, Ryegrass, Italian: 500 g ai/ha, 0 to 100 scale, 0 no effect, 100 complete control
Outline: as §2

[6] = system: wheat (Triticum aestivum); test: Test A postemergence; settings: postemergence; for Wheat plant response rating: 125 g ai/ha, visual injury rating on 0 to 100 scale (0 no effect, 100 complete control), approx. 10 d; for Plant response rating, Wheat: 500 g ai/ha, 0 to 100 scale, 0 no effect, 100 complete control
Outline: as §2

[7] = system: pigweed (Amaranthus retroflexus); test: Test A postemergence; settings: postemergence; for Pigweed plant response rating: 125 g ai/ha, visual injury rating on 0 to 100 scale (0 no effect, 100 complete control), approx. 10 d; for Plant response rating, Pigweed: 500 g ai/ha, 0 to 100 scale, 0 no effect, 100 complete control
Outline: as §2

[8] = system: ragweed (common ragweed, Ambrosia elatior); test: Test A postemergence; settings: postemergence; for Ragweed plant response rating: 125 g ai/ha, visual injury rating on 0 to 100 scale (0 no effect, 100 complete control), approx. 10 d; for Plant response rating, Ragweed: 500 g ai/ha, 0 to 100 scale, 0 no effect, 100 complete control
Outline: as §2

Kochia (Kochia scoparia) [9] = test: Test A postemergence; settings: postemergence; for Kochia plant response rating: 125 g ai/ha, visual injury rating on 0 to 100 scale (0 no effect, 100 complete control), approx. 10 d; for Plant response rating, Kochia: 500 g ai/ha, 0 to 100 scale, 0 no effect, 100 complete control
Outline: as §2

[10] = system: blackgrass (Alopecurus myosuroides); test: Test A postemergence; settings: postemergence; for Blackgrass plant response rating: 125 g ai/ha, visual injury rating on 0 to 100 scale (0 no effect, 100 complete control), approx. 10 d; for Plant response rating, Blackgrass: 500 g ai/ha, 0 to 100 scale, 0 no effect, 100 complete control
Outline: as §2

corn (Zea mays) = test: Test A postemergence; settings: postemergence; for Corn plant response rating: 125 g ai/ha, visual injury rating on 0 to 100 scale (0 no effect, 100 complete control), approx. 10 d; for Plant response rating, Corn: 500 g ai/ha, 0 to 100 scale, 0 no effect, 100 complete control
Outline: as §2

[11] = system: barnyardgrass (Echinochloa crus-galli); test: Test A postemergence; settings: postemergence; for Barnyardgrass plant response rating: 125 g ai/ha, visual injury rating on 0 to 100 scale (0 no effect, 100 complete control), approx. 10 d; for Plant response rating, Barnyardgrass: 500 g ai/ha, 0 to 100 scale, 0 no effect, 100 complete control
Outline: as §2

[12] = system: giant foxtail (Setaria faberii); test: Test A postemergence; settings: postemergence; for Foxtail, Giant plant response rating: 125 g ai/ha, visual injury rating on 0 to 100 scale (0 no effect, 100 complete control), approx. 10 d; for Plant response rating, Foxtail, Giant: 500 g ai/ha, 0 to 100 scale, 0 no effect, 100 complete control
Outline: as §2

[13] = system: ryegrass, Italian (Italian ryegrass, Lolium multiflorum); test: Test A preemergence; settings: for Plant response rating, Ryegrass, Italian: 125 g ai/ha, preemergence, 0 to 100 scale (0 no effect, 100 complete control); for Ryegrass, Italian plant response rating (0 to 100 scale, 0 is no effect, 100 is complete control): Preemergence, 500 g ai/ha, visual injury approx. 10 d
Outline: as §2

[14] = system: pigweed (Amaranthus retroflexus); test: Test A preemergence; settings: for Plant response rating, Pigweed: 125 g ai/ha, preemergence, 0 to 100 scale (0 no effect, 100 complete control); for Pigweed plant response rating (0 to 100 scale, 0 is no effect, 100 is complete control): Preemergence, 500 g ai/ha, visual injury approx. 10 d
[15] = system: ragweed (common ragweed, Ambrosia elatior); test: Test A preemergence; settings: for Plant response rating, Ragweed: 125 g ai/ha, preemergence, 0 to 100 scale (0 no effect, 100 complete control); for Ragweed plant response rating (0 to 100 scale, 0 is no effect, 100 is complete control): Preemergence, 500 g ai/ha, visual injury approx. 10 d
Outline: as §2

Kochia (Kochia scoparia) [16] = test: Test A preemergence; settings: for Plant response rating, Kochia: 125 g ai/ha, preemergence, 0 to 100 scale (0 no effect, 100 complete control); for Kochia plant response rating (0 to 100 scale, 0 is no effect, 100 is complete control): Preemergence, 500 g ai/ha, visual injury approx. 10 d
Outline: as §2

[17] = system: barnyardgrass (Echinochloa crus-galli); test: Test A preemergence; settings: for Plant response rating, Barnyardgrass: 125 g ai/ha, preemergence, 0 to 100 scale (0 no effect, 100 complete control); for Barnyardgrass plant response rating (0 to 100 scale, 0 is no effect, 100 is complete control): Preemergence, 500 g ai/ha, visual injury approx. 10 d
Outline: as §2

[18] = system: giant foxtail (Setaria faberii); test: Test A preemergence; settings: for Plant response rating, Foxtail, Giant: 125 g ai/ha, preemergence, 0 to 100 scale (0 no effect, 100 complete control); for Foxtail, Giant plant response rating (0 to 100 scale, 0 is no effect, 100 is complete control): Preemergence, 500 g ai/ha, visual injury approx. 10 d
Outline: as §2

Structure (SMILES): O=C1NCC(c2ccc(F)c(F)c2)C1C(=O)Nc1ccc(Cl)cc1F (stereo not drawn) [Compound 410]
- Plant response rating, Rice (rice (Oryra sativa); 500 g ai/ha): 0
- Plant response rating, Barnyardgrass ([1]; 500 g ai/ha): 0
- Plant response rating, Ducksalad ([2]; 500 g ai/ha): 30
- Plant response rating, Sedge, Umbrella ([3]; 500 g ai/ha): 0
- Galium plant response rating [4]: 0
- Plant response rating, Galium [4]: 0
- Ryegrass, Italian plant response rating [5]: 0
- Plant response rating, Ryegrass, Italian [5]: 0
- Wheat plant response rating [6]: 0
- Plant response rating, Wheat [6]: 0
- Pigweed plant response rating [7]: 0
- Plant response rating, Pigweed [7]: 20
- Ragweed plant response rating [8]: 0
- Plant response rating, Ragweed [8]: 0
- Kochia plant response rating (Kochia (Kochia scoparia) [9]): 0
- Plant response rating, Kochia (Kochia (Kochia scoparia) [9]): 0
- Blackgrass plant response rating [10]: 0
- Plant response rating, Blackgrass [10]: 20
- Corn plant response rating (corn (Zea mays)): 0
- Plant response rating, Corn (corn (Zea mays)): 0
- Barnyardgrass plant response rating [11]: 20
- Plant response rating, Barnyardgrass [11]: 50
- Foxtail, Giant plant response rating [12]: 0
- Plant response rating, Foxtail, Giant [12]: 40
- Plant response rating, Ryegrass, Italian [13]: 0
- Ryegrass, Italian plant response rating (0 to 100 scale, 0 is no effect, 100 is complete control) [13]: 0
- Plant response rating, Pigweed [14]: 0
- Pigweed plant response rating (0 to 100 scale, 0 is no effect, 100 is complete control) [14]: 20
- Plant response rating, Ragweed [15]: 0
- Ragweed plant response rating (0 to 100 scale, 0 is no effect, 100 is complete control) [15]: 0
- Plant response rating, Kochia (Kochia (Kochia scoparia) [16]): 0
- Kochia plant response rating (0 to 100 scale, 0 is no effect, 100 is complete control) (Kochia (Kochia scoparia) [16]): 0
- Plant response rating, Barnyardgrass [17]: 50
- Barnyardgrass plant response rating (0 to 100 scale, 0 is no effect, 100 is complete control) [17]: 60
- Plant response rating, Foxtail, Giant [18]: 70
- Foxtail, Giant plant response rating (0 to 100 scale, 0 is no effect, 100 is complete control) [18]: 80

Structure (SMILES): Cc1cc(C2CN(C)C(=O)C2C(=O)Nc2ccccc2C(F)(F)F)ccc1F (stereo not drawn) [Compound 406]
- Plant response rating, Rice (rice (Oryra sativa); 250 g ai/ha): 0
- Plant response rating, Barnyardgrass ([1]; 250 g ai/ha): 70
- Plant response rating, Ducksalad ([2]; 250 g ai/ha): 80
- Plant response rating, Sedge, Umbrella ([3]; 250 g ai/ha): 0
- Galium plant response rating [4]: 50
- Plant response rating, Galium [4]: 50
- Ryegrass, Italian plant response rating [5]: 30
- Plant response rating, Ryegrass, Italian [5]: 40
- Wheat plant response rating [6]: 40
- Plant response rating, Wheat [6]: 70
- Pigweed plant response rating [7]: 20
- Plant response rating, Pigweed [7]: 30
- Ragweed plant response rating [8]: 20
- Plant response rating, Ragweed [8]: 20
- Kochia plant response rating (Kochia (Kochia scoparia) [9]): 40
- Plant response rating, Kochia (Kochia (Kochia scoparia) [9]): 50
- Blackgrass plant response rating [10]: 30
- Plant response rating, Blackgrass [10]: 50
- Corn plant response rating (corn (Zea mays)): 20
- Plant response rating, Corn (corn (Zea mays)): 70
- Barnyardgrass plant response rating [11]: 90
- Plant response rating, Barnyardgrass [11]: 90
- Foxtail, Giant plant response rating [12]: 80
- Plant response rating, Foxtail, Giant [12]: 80
- Plant response rating, Ryegrass, Italian [13]: 20
- Ryegrass, Italian plant response rating (0 to 100 scale, 0 is no effect, 100 is complete control) [13]: 50
- Plant response rating, Pigweed [14]: 20
- Pigweed plant response rating (0 to 100 scale, 0 is no effect, 100 is complete control) [14]: 50
- Plant response rating, Ragweed [15]: 0
- Ragweed plant response rating (0 to 100 scale, 0 is no effect, 100 is complete control) [15]: 40
- Plant response rating, Kochia (Kochia (Kochia scoparia) [16]): 0
- Kochia plant response rating (0 to 100 scale, 0 is no effect, 100 is complete control) (Kochia (Kochia scoparia) [16]): 40
- Plant response rating, Barnyardgrass [17]: 90
- Barnyardgrass plant response rating (0 to 100 scale, 0 is no effect, 100 is complete control) [17]: 90
- Plant response rating, Foxtail, Giant [18]: 90
- Foxtail, Giant plant response rating (0 to 100 scale, 0 is no effect, 100 is complete control) [18]: 90
